Source: patent US8263606B2 (Xenon Pharmaceuticals Inc., priority 2008, dated 2012)

Assays:
[1] = test system: sodium channel; assay: Guanidine influx assay (14C-guanidine radiotracer flux, in vitro); format: cell-based, human or rat; conditions: guanidine influx assay using a known cell line that expresses a sodium channel
Method in brief: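 Radiotracer read-out: intracellular 14C-guanidine counted after washing with guanidine-supplemented low-sodium buffer. Cells expressing human or rat channels get test agent plus aconitine activator and tracer, incubated at ambient temperature. Dilution series centred on 1 μM; IC50 by sigmoidal dose-response fit.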

[2] = molecular target: CYP3A4 (Homo sapiens, UniProt P08684); assay: Cytochrome P450 (CYP450) Inhibition Assay, CYP3A4 (Vivid fluorescence, BOMCC substrate); conditions: human, P450 Baculosomes (recombinant CYP3A4), probe BOMCC (Vivid substrate)
Chain of CYP3A4 (P08684 whole entry): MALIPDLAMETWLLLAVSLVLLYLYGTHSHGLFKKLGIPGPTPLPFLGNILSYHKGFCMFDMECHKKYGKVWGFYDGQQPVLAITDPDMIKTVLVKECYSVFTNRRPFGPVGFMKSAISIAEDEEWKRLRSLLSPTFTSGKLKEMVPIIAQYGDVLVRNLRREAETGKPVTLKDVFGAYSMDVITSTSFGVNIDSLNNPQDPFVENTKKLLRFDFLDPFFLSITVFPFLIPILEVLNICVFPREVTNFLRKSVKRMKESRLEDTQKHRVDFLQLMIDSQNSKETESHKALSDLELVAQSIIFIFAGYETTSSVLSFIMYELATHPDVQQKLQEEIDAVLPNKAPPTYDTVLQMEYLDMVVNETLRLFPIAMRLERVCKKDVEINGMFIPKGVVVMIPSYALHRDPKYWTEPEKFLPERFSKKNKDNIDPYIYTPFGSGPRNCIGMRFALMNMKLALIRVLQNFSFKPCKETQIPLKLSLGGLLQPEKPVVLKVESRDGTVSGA

`CCN(CC)C(=O)CN1C(=O)C2(COc3cc4c(cc32)CCO4)c2ccccc21` (centres unmarked) [Example 12.48, N,N-diethyl-2-(2′-oxo-5,6-dihydrospiro[benzo[1,2-b:5,4-b′]difuran-3,3′-indol]-1′(2′H)-yl)acetamide] gave an IC50 [1] of 100 to 1000 nM and an inhibition at 10 µM [2] of less than 50%.
`O=C1N(CC2CCNC2)c2ccccc2C12COc1cc3c(cc12)CCO3` (centres unmarked) [Example 11.61, 1′-(pyrrolidin-3-ylmethyl)-5,6-dihydrospiro[benzo[1,2-b:5,4-b′]difuran-3,3′-indol]-2′(1′H)-one] showed an IC50 [1] of 1000 to 10000 nM and an inhibition at 10 µM [2] of less than 50%.
Work on `COc1ccc(CN2C(=O)C3(COc4cc5c(cc43)OCCO5)c3c2ccc2ncsc32)cc1` (centres unmarked) [Example 2.66, 6′-(4-methoxybenzyl)-2,3-dihydrospiro[furo[2,3-g][1,4]benzodioxine-8,8′-[1,3]thiazolo[5,4-e]indol]-7′(6′H)-one] yielded an IC50 ([1]; activity level class) of 100 to 1000 nM and an inhibition at 10 µM [2] greater than 50%.
Work on `C[C@H](NC(=O)c1cccc(CN2C(=O)C3(COc4cc5c(cc43)CCO5)c3ccccc32)c1)C1CCCCC1` (stereo partly drawn) [Example 12.6, N-[(1S)-1-cyclohexylethyl]-3-[(2′-oxo-5,6-dihydrospiro[benzo[1,2-b:5,4-b′]difuran-3,3′-indol]-1′(2′H)-yl)methyl]benzamide] yielded an IC50 [1] of 100 to 1000 nM and an inhibition at 10 µM [2] greater than 50%.
With `CCc1ccc(NC(=O)CN2C(=O)C3(COc4cc5c(cc43)CCO5)c3ccccc32)cc1` (centres unmarked) [Example 12.47, N-(4-ethylphenyl)-2-(2′-oxo-5,6-dihydrospiro[benzo[1,2-b:5,4-b′]difuran-3,3′-indol]-1′(2′H)-yl)acetamide] the IC50 [1] was 1000 to 10000 nM and the inhibition at 10 µM [2] was less than 50%.
`O=C(c1ccc(CN2C(=O)C3(COc4cc5c(cc43)CCO5)c3ccccc32)cc1)N1CCOCC1` (centres unmarked) [Example 12.33, 1′-[4-(morpholin-4-ylcarbonyl)benzyl]-5,6-dihydrospiro[benzo[1,2-b:5,4-b′]difuran-3,3′-indol]-2′(1′H)-one] was tested, and the IC50 [1] was 1000 to 10000 nM and the inhibition at 10 µM [2] was greater than 50%.
With `Cn1ccc2cc(-c3cccc4c3C3(COc5cc6c(cc53)CCO6)C(=O)N4C[C@H]3CCCO3)ccc21` (stereo partly drawn) [Example 16.4, 4′-(1-methyl-1H-indol-5-yl)-1′-[(2R)-tetrahydrofuran-2-ylmethyl]-5,6-dihydrospiro[benzo[1,2-b:5,4-b′]difuran-3,3′-indol]-2′(1′H)-one] the IC50 [1] was 100 to 1000 nM and the inhibition at 10 µM [2] was greater than 50%.
For `O=C1N(Cc2cc(Br)cs2)c2ccccc2C12COc1cc3c(cc12)OCO3` (centres unmarked) [Example 1.7, 1′-[(4-bromo-2-thienyl)methyl]spiro[furo[2,3-f][1,3]benzodioxole-7,3′-indol]-2′(1′H)-one], the IC50 ([1]; activity level class) was 1 to 100 nM and the inhibition at 10 µM [2] was greater than 50%.
`COCCOCCN1C(=O)C2(COc3cc(OCCOC)ccc32)c2ccccc21` (centres unmarked) [Example 9.75, 6-(2-methoxyethoxy)-1′-[2-(2-methoxyethoxy)ethyl]spiro[1-benzofuran-3,3′-indol]-2′(1′H)-one] showed an IC50 [1] of 100 to 1000 nM and an inhibition at 10 µM [2] of less than 50%.
`O=C1Nc2cccc(Br)c2C12COc1cc3c(cc12)OCCO3` (centres unmarked) [Example 3.32, 4′-bromo-2,3-dihydrospiro[furo[2,3-g][1,4]benzodioxine-8,3′-indol]-2′(1′H)-one] was tested, and the IC50 ([1]; activity level class) was 100 to 1000 nM and the inhibition at 10 µM [2] was less than 50%.
`O=C1N(Cc2cncs2)c2ccccc2C12COc1cc3c(cc12)OCCO3` (centres unmarked) [Example 7.11] showed an IC50 ([1]; activity level class) of 1 to 100 nM and an inhibition at 10 µM [2] greater than 50%.
Compound `O=C1N(Cc2ccc(F)cc2Cl)c2ccccc2C12COc1cc3c(cc12)OCCO3` (centres unmarked) [Example 7.22, 1′-(2-chloro-4-fluorobenzyl)-2,3-dihydrospiro[furo[2,3-g][1,4]benzodioxine-8,3′-indol]-2′(1′H)-one] has an IC50 ([1]; activity level class) of 1 to 100 nM and an inhibition at 10 µM [2] of less than 50%.
For `C[C@@H](NC(=O)c1cccc(CN2C(=O)C3(COc4cc5c(cc43)CCO5)c3ccccc32)c1)C1CCCCC1` (stereo partly drawn) [Example 12.7, N-[(1R)-1-cyclohexylethyl]-3-[(2′-oxo-5,6-dihydrospiro[benzo[1,2-b:5,4-b′]difuran-3,3′-indol]-1′(2′H)-yl)methyl]benzamide], the IC50 [1] was 1000 to 10000 nM and the inhibition at 10 µM [2] was greater than 50%.
Compound `O=C(Nc1ccc2c(c1)CCC2)c1ccc(CN2C(=O)C3(COc4cc5c(cc43)CCO5)c3ccccc32)cc1` (centres unmarked) [Example 12.32, N-(2,3-dihydro-1H-inden-5-yl)-4-[(2′-oxo-5,6-dihydrospiro[benzo[1,2-b:5,4-b′]difuran-3,3′-indol]-1′(2′H)-yl)methyl]benzamide] has an IC50 [1] of 1000 to 10000 nM and an inhibition at 10 µM [2] of less than 50%.
Compound `O=C(NCc1cccc(Cl)c1)c1ccccc1CN1C(=O)C2(COc3cc4c(cc32)CCO4)c2ccccc21` (centres unmarked) [Example 12.23, N-(3-chlorobenzyl)-2-[(2′-oxo-5,6-dihydrospiro[benzo[1,2-b:5,4-b′]difuran-3,3′-indol]-1′(2′H)-yl)methyl]benzamide] has an IC50 [1] of 1000 to 10000 nM and an inhibition at 10 µM [2] greater than 50%.
Work on `O=C1Nc2ccccc2C12CCOc1cc3c(cc12)CCO3` (centres unmarked) [Example 3.24, 2,3,6,7-tetrahydrospiro[furo[3,2-g]chromene-5,3′-indol]-2′(1′H)-one] yielded an IC50 ([1]; activity level class) of 1000 to 10000 nM and an inhibition at 10 µM [2] of less than 50%.
In the case of `O=C(O)c1ccc(CN2C(=O)C3(COc4cc5c(cc43)CCO5)c3ccccc32)o1` (centres unmarked) [Example 13, 5-[(2′-oxo-5,6-dihydrospiro[benzo[1,2-b:5,4-b′]difuran-3,3′-indol]-1′(2′H)-yl)methyl]furan-2-carboxylic acid], the IC50 [1] is reported as 1000 to 10000 nM and the inhibition at 10 µM [2] is reported as less than 50%.
In the case of `CC(CNC(=O)c1cccc(CN2C(=O)C3(COc4cc5c(cc43)CCO5)c3ccccc32)c1)c1ccccc1` (centres unmarked) [Example 12.5, 3-[(2′-oxo-5,6-dihydrospiro[benzo[1,2-b:5,4-b′]difuran-3,3′-indol]-1′(2′H)-yl)methyl]-N-(2-phenylpropyl)benzamide], the IC50 [1] is reported as 100 to 1000 nM and the inhibition at 10 µM [2] is reported as greater than 50%.
`COCCOCCN1C(=O)C2(COc3ccc(OCCOC)cc32)c2ccccc21` (centres unmarked) [Example 9.76, 5-(2-methoxyethoxy)-1′-[2-(2-methoxyethoxy)ethyl]spiro[1-benzofuran-3,3′-indol]-2′(1′H)-one] gave an IC50 [1] of 100 to 1000 nM and an inhibition at 10 µM [2] of less than 50%.
`O=C(NCCc1ccc(Cl)cc1)c1ccccc1CN1C(=O)C2(COc3cc4c(cc32)CCO4)c2ccccc21` (centres unmarked) [Example 12.24, N-[2-(4-chlorophenyl)ethyl]-2-[(2′-oxo-5,6-dihydrospiro[benzo[1,2-b:5,4-b′]difuran-3,3′-indol]-1′(2′H)-yl)methyl]benzamide] was tested, and the IC50 [1] was 1000 to 10000 nM and the inhibition at 10 µM [2] was greater than 50%.
`O=C1N(Cc2ccc(-c3nnn[nH]3)cc2)c2ccccc2C12COc1cc3c(cc12)CCO3` (centres unmarked) [Example 11.44, 1′-[4-(1H-tetrazol-5-yl)benzyl]-5,6-dihydrospiro[benzo[1,2-b:5,4-b′]difuran-3,3′-indol]-2′(1′H)-one] showed an IC50 [1] of 1000 to 10000 nM and an inhibition at 10 µM [2] greater than 50%.
`CS(=O)(=O)Nc1cccnc1CN1C(=O)C2(COc3cc4c(cc32)OCCO4)c2ccccc21` (centres unmarked) [Example 11.98, N-{2-[(2′-oxo-2,3-dihydrospiro[furo[2,3-g][1,4]benzodioxine-8,3′-indol]-1′(2′H)-yl)methyl]pyridine-3-yl}methanesulfonamide] gave an IC50 [1] of 100 to 1000 nM and an inhibition at 10 µM [2] greater than 50%.
Compound `O=C(Nc1ccccc1)c1ccc(CN2C(=O)C3(COc4cc5c(cc43)CCO5)c3ccccc32)cc1` (centres unmarked) [Example 12.27, 4-[(2′-oxo-5,6-dihydrospiro[benzo[1,2-b:5,4-b′]difuran-3,3′-indol]-1′(2′H)-yl)methyl]-N-phenylbenzamide] has an IC50 [1] of 100 to 1000 nM and an inhibition at 10 µM [2] of less than 50%.
In the case of `CC(C)N1CCOC(CN2C(=O)C3(COc4cc5c(cc43)CCO5)c3ccccc32)C1` (centres unmarked) [Example 11.42, 1′-{[4-(1-methylethyl)morpholin-2-yl]methyl}-5,6-dihydrospiro[benzo[1,2-b:5,4-b′]difuran-3,3′-indol]-2′(1′H)-one], the IC50 [1] is reported as 1000 to 10000 nM and the inhibition at 10 µM [2] is reported as greater than 50%.
With `O=C1N(Cc2ccc(C(F)(F)F)o2)c2ccccc2C12COc1cc(Br)ccc12` (centres unmarked) [Example 2.22, 6-bromo-1′-((5-(trifluoromethyl)furan-2-yl)methyl)-2H-spiro[benzofuran-3,3′-indolin]-2′-one] the IC50 ([1]; activity level class) was 1000 to 10000 nM and the inhibition at 10 µM [2] was greater than 50%.
With `COC(=O)c1coc(CN2C(=O)C3(COc4cc5c(cc43)CCO5)c3ccccc32)n1` (centres unmarked) [Example 4.11, methyl 2-[(2′-oxo-5,6-dihydrospiro[benzo[1,2-b:5,4-b′]difuran-3,3′-indol]-1′(2′H)-yl)methyl]-1,3-oxazole-4-carboxylate] the IC50 ([1]; activity level class) was 1 to 100 nM and the inhibition at 10 µM [2] was less than 50%.
For `Cc1cc2c(cc1C)C1(CO2)C(=O)N(CC2CCCCO2)c2ccccc21` (centres unmarked) [Example 6.2, 5,6-dimethyl-1′-(tetrahydro-2H-pyran-2-ylmethyl)spiro[1-benzofuran-3,3′-indol]-2′(1′H)-one], the IC50 ([1]; activity level class) was 100 to 1000 nM and the inhibition at 10 µM [2] was greater than 50%.
`NC(=O)CN1C(=O)C2(COc3cc4c(cc32)CCO4)c2ccccc21` (centres unmarked) [Example 12.46, 2-(2′-oxo-5,6-dihydrospiro[benzo[1,2-b:5,4-b′]difuran-3,3′-indol]-1′(2′H)-yl)acetamide] showed an IC50 [1] of 1000 to 10000 nM and an inhibition at 10 µM [2] of less than 50%.
Work on `O=C1N(C[C@H]2CCCO2)c2cccc(CN3CCCC3)c2C12COc1cc3c(cc12)CCO3` (stereo partly drawn) [Example 11.38, 4′-(pyrrolidin-1-ylmethyl)-1′-[(2R)-tetrahydrofuran-2-ylmethyl]-5,6-dihydrospiro[benzo[1,2-b:5,4-b′]difuran-3,3′-indol]-2′(1′H)-one] yielded an IC50 [1] of 1000 to 10000 nM and an inhibition at 10 µM [2] of less than 50%.
Work on `COc1ccc2c(c1)OCC21C(=O)N(CC2CCCCO2)c2ccccc21` (centres unmarked) [Example 9.36, 6-methoxy-1′-(tetrahydro-2H-pyran-2-ylmethyl)spiro[1-benzofuran-3,3′-indol]-2′(1′H)-one] yielded an IC50 ([1]; activity level class) of 1 to 100 nM and an inhibition at 10 µM [2] of less than 50%.
Compound `O=C1N(C[C@H]2CCCO2)c2ccccc2C12COc1cc3c(cc12)COCO3` (stereo partly drawn) [Example 2.31, 1′-[(2R)-tetrahydrofuran-2-ylmethyl]-4H-spiro[furo[3,2-g][1,3]benzodioxine-6,3′-indol]-2′(1′H)-one] has an IC50 ([1]; activity level class) of 1000 to 10000 nM and an inhibition at 10 µM [2] greater than 50%.
